# Several values for one entry are separate records, joined by “and”; a condition that tells them apart may be missing. Equal entries are not always repeated. Where two headings read alike, the source gives them in different places. Marks after values point to notes of the source that are not given here.
# Legend:
# [1] = format: in vivo, human
# [2] = tested on: cytochrome P450 3A4 (CYP3A4); details: cited from earlier work
# [3] = Updated stage 1 / stage 2 population pharmacokinetic analysis; format: in vivo, human; details: for ACS subjects (θ13) effect on Vc/F, Estimate ± SE / Evening dosing (AM/PM = 2) (θ10) effect on ka, Estimate ± SE / NVAF subjects (θ12) effect on Vc/F, Estimate ± SE: fractional change; for Vd/F: Vc/F (θ3) apparent volume of distribution of the central compartment, Estimate ± SE; for D_WTB (θ11) baseline body weight effect on Vc/F, Estimate ± SE: power coefficient
# [4] = vs normal renal function, phase I; cited from earlier work
# P‐glycoprotein (P‐gp) = details: cited from earlier work
# [5] = tested on: breast cancer resistance protein; details: cited from earlier work
# [6] = cited from earlier work
# [7] = cited from earlier work; remark: listed apart in the source
# [8] = fractional change, stage 2 final ad hoc model
# [9] = power coefficient, stage 2 final ad hoc model
# [10] = relative to non‐Asian typical patients with NVAF
# [11] = relative to the typical 70‐kg NVAF subject
smiles,measurement,setting,value
COc1ccc(-n2nc(C(N)=O)c3c2C(=O)N(c2ccc(N4CCCCC4=O)cc2)CC3)cc1 [apixaban],"ACS subjects (θ13) effect on Vc/F, Estimate ± SE",[1]; [8],−0.184 ± 0.0463
same,"Evening dosing (AM/PM = 2) (θ10) effect on ka, Estimate ± SE",[1]; [8],−0.436 ± 0.0237
same,"Female (θ15) effect on CLNR/F, Estimate ± SE",[1]; [8],−0.227 ± 0.0269
same,"NVAF subjects (θ12) effect on Vc/F, Estimate ± SE",[1]; [8],−0.0530 ± 0.0508
same,CL renal,"[1]; human, plasma, oral",26.7 mL/min
same,Vd/F,"[1]; human, plasma, oral",30 ± 1.04 L
same,"Age (θ14) effect on CLNR/F, Estimate ± SE",[1]; [9],−0.414 ± 0.0727
same,"D_WTB (θ11) baseline body weight effect on Vc/F, Estimate ± SE",[1]; [9],0.792 ± 0.0648
same,CL/F higher in Korean subjects,[1]; relative to non‐Asian subjects,3.3%
same,CL/F lower in Japanese subjects,[1]; relative to non‐Asian subjects,15.1%
same,CL/F lower in other Asian subjects,[1]; relative to non‐Asian subjects,4.3%
same,"change in daily AUCss, Japanese",[1]; [10],17.7%
same,"change in daily AUCss, Korean",[1]; [10],−3.2%
same,"change in daily AUCss, other Asian races",[1]; [10],4.5%
same,"change in population mean total CL/F, Japanese",[1]; [10],−15.1%
same,"change in population mean total CL/F, Korean",[1]; [10],3.3%
same,"change in population mean total CL/F, other Asian races",[1]; [10],−4.3%
same,CL/F apparent total clearance,"[1]; simple sum of CLR/F and CLNR/F, stage 2 final ad hoc model",3.62 ^a L/hour
same,"Logit for reduction in Frel at 50 mg (I50) (θ9), Estimate ± SE",[1]; stage 2 final ad hoc model,−0.327 ± 0.0519
same,"Shape parameter for Frel (γ) (θ8), Estimate ± SE",[1]; stage 2 final ad hoc model,0.875 ± 0.0779
same,"Vp/F (θ5) apparent volume of distribution of the peripheral compartment, Estimate ± SE",[1]; stage 2 final ad hoc model,27.3 ± 2.78 L
same,"ka (θ1) absorption rate constant, Estimate ± SE",[1]; stage 2 final ad hoc model,0.471 ± 0.0218 h⁻¹
same,pathway of plasma elimination,[2],metabolism primarily by cytochrome P450 3A4 (CYP3A4)
same,"predicted increase in AUCss, moderate renal impairment","[3]; NVAF, cCrCL 40 mL/minute, compared with normal renal function",28%
same,"predicted increase in AUCss, mild renal impairment","[3]; NVAF, cCrCL = 65 mL/minute, compared with normal renal function",9%
same,increase in exposure with strong/moderate inhibitors of both CYP3A4 and P‐gp,[3]; PPK estimate,~ 17%
same,"CLR/F (θ2) apparent renal clearance, Estimate ± SE","[3]; cCrCL reference 80 mL/minute, stage 2 final model",1.57 ± 0.117 L/h
same,"reduced CL/F, ACS",[3]; compared with healthy subjects,21.5%
same,"reduced CL/F, Asian race",[3]; compared with non‐Asian subjects,11.9%
same,"ACS subjects (θ13) effect on Vc/F, Estimate ± SE",[3]; stage 2 final model,−0.180 ± 0.0446
same,"Evening dosing (AM/PM = 2) (θ10) effect on ka, Estimate ± SE",[3]; stage 2 final model,−0.433 ± 0.0236
same,"NVAF subjects (θ12) effect on Vc/F, Estimate ± SE",[3]; stage 2 final model,−0.0405 ± 0.0491
same,"ACS subjects (θ13) effect on Vc/F, Estimate ± SE",[3]; updated stage 1 final model,−0.177 ± 0.0449
same,"Evening dosing (AM/PM = 2) (θ10) effect on ka, Estimate ± SE",[3]; updated stage 1 final model,−0.434 ± 0.0234
same,"NVAF subjects (θ12) effect on Vc/F, Estimate ± SE",[3]; updated stage 1 final model,−0.0217 ± 0.0501
same,effect of strong CYP3A4/P‐gp inducers on CL/F,"[3]; full stage 2 model, not included in final model",very small and poorly estimated
same,CL renal,"[3]; human, plasma, oral",26.2 mL/min
same,Vd/F,"[3]; human, plasma, oral, stage 2 final model",30 ± 0.971 L
same,Vd/F,"[3]; human, plasma, oral, updated stage 1 final model",29.8 ± 0.981 L
same,impact of Asian race on exposure,[3]; in vivo,< 15%
same,"D_WTB (θ11) baseline body weight effect on Vc/F, Estimate ± SE",[3]; stage 2 final model,0.790 ± 0.0645
same,"D_WTB (θ11) baseline body weight effect on Vc/F, Estimate ± SE",[3]; updated stage 1 final model,0.806 ± 0.0649
same,decrease in ka with administration in the evening,[3]; relative to administration in the morning or afternoon,43%
same,increase in Vc/F for a 90‐kg subject,[3]; [11],22%
same,reduction in Vc/F for a 50‐kg subject,[3]; [11],23.3%
same,"Logit for reduction in Frel at 50 mg (I50) (θ9), Estimate ± SE",[3]; stage 2 final model,−0.322 ± 0.0512
same,"Shape parameter for Frel (γ) (θ8), Estimate ± SE",[3]; stage 2 final model,0.857 ± 0.0684
same,"Vp/F (θ5) apparent volume of distribution of the peripheral compartment, Estimate ± SE",[3]; stage 2 final model,27.0 ± 2.03 L
same,"ka (θ1) absorption rate constant, Estimate ± SE",[3]; stage 2 final model,0.473 ± 0.0208 h⁻¹
same,"Logit for reduction in Frel at 50 mg (I50) (θ9), Estimate ± SE",[3]; updated stage 1 final model,−0.321 ± 0.0512
same,"Shape parameter for Frel (γ) (θ8), Estimate ± SE",[3]; updated stage 1 final model,0.853 ± 0.0693
same,"Vp/F (θ5) apparent volume of distribution of the peripheral compartment, Estimate ± SE",[3]; updated stage 1 final model,26.7 ± 1.89 L
same,"ka (θ1) absorption rate constant, Estimate ± SE",[3]; updated stage 1 final model,0.471 ± 0.0204 h⁻¹
same,change in exposure due to individual covariate (demographic) effects,"[3]; vs the reference NVAF subject, except severe renal impairment",< 25% and ≤ 25%
same,"higher estimated AUCINF, mild renal impairment",[4],~ 16%
same,"higher estimated AUCINF, moderate renal impairment",[4],~29%
same,"higher estimated AUCINF, severe renal impairment",[4],~44%
same,substrate status,P‐glycoprotein (P‐gp),substrate
same,substrate status,[5],substrate
same,oral bioavailability,[6],~ 50%
same,steady‐state volume of distribution,[6],~ 21 liters
same,time dependency of pharmacokinetics,[6],no time dependency
same,total clearance,[6],3.3 L/h
same,Renal clearance as share of total systemic clearance,"[6]; following intravenous administration, healthy subjects",~ 27%
same,half‐life,[6]; following oral administration,~ 12 hours
same,dose dependence of exposure,[6]; therapeutic dose range (2.5–10 mg),dose‐proportional increase in exposure
same,increase in AUC when co‐administered with diltiazem,"[7]; diltiazem, a moderate CYP3A4/P‐gp inhibitor",40%
same,increase in AUC when co‐administered with ketoconazole,"[7]; ketoconazole, a strong CYP3A4/P‐gp inhibitor",99%

# From paper PMC6263664 (CPT: Pharmacometrics & Systems Pharmacology, 2018)
